Measurements as given in the NIST ThermoML archive (doi:10.1016/j.fluid.2010.02.021).

Assay: xn = mol fraction of the nth substance listed
Conditions: 101.3 kPa, Liquid, Falling or rolling sphere viscometry

CCn1cc[n+](C)c1.O=S(=O)([N-]S(=O)(=O)C(F)(F)F)C(F)(F)F + O
viscosity [mPa·s]
Conditions	x2 = 0	x2 = 0.1074	x2 = 0.2228	x2 = 0.3027
303.15 K	28.6	23.8	19.4	16.4
323.15 K	15.9	13.6	11.4	9.9
